Reference: patent publication US10626144B2, “Peptide derivatives and uses thereof” (Nosopharm, priority 2014, dated 2020)
Square brackets hold non-standard residues; d marks the D form. Peptide text beside a SMILES is read from it. Phe(3,4-(OMe)2) = COc1ccc(C[C@H](N)C(=O)O)cc1OC; Phe(3-CONH2) = NC(=O)c1cccc(C[C@H](N)C(=O)O)c1; Abu(4,4,4-F3) = N[C@@H](CC(F)(F)F)C(=O)O; Phe(4-CN) = N#Cc1ccc(C[C@H](N)C(=O)O)cc1; Phe(3-F) = N[C@@H](Cc1cccc(F)c1)C(=O)O; Phe(3-Me) = Cc1cccc(C[C@H](N)C(=O)O)c1; Dab(3S-OH) = NC[C@H](O)[C@H](N)C(=O)O; Phe(2-F) = N[C@@H](Cc1ccccc1F)C(=O)O; ΔZArg = N=C(N)NCC/C=C(\N)C(=O)O; Gly(cPr) = N[C@H](C(=O)O)C1CC1; Lys(Me) = CNCCCC[C@H](N)C(=O)O; dOrn = NCCC[C@@H](N)C(=O)O; Orn = NCCC[C@H](N)C(=O)O

Assays:
Test in all cases: MIC, broth microdilution (CLSI), reference strain
Settings in all cases: CAMHB
[1] = test system: Pseudomonas aeruginosa ATCC 27853
[2] = test system: Acinetobacter baumannii ATCC 19606
[3] = test system: Staphylococcus aureus ATCC 13709
[4] = test system: Escherichia coli ATCC 25922

## N=C(N)NCC/C=C(\NC(=O)[C@H](CCCCN)NC(=O)[C@H](Cc1cnc[nH]1)NC(=O)[C@@H]1CCCN1C(=O)[C@@H](CCCN)NC(=O)CNC(=O)[C@H](CCCN)NC(=O)[C@@H](NC(=O)[C@@H](N)CCCCN)[C@@H](O)CN)C(=O)O [211.2] (H-K[Dab(3S-OH)][Orn]G[dOrn]PHK[ΔZArg]-OH)
[1]
  Pa: MIC Pseudomonas aeruginosa ATCC 27853: − (>32 μg/mL)
[2]
  Ab: MIC Acinetobacter baumannii ATCC 19606: − (>32 μg/mL)
[3]
  Sa: MIC Staphylococcus aureus ATCC 13709: ++ (≤8 μg/mL)
[4]
  Ec: MIC Escherichia coli ATCC 25922: + (≤32 μg/mL)

## N=C(N)NCC/C=C(\NC(=O)[C@H](CCCCN)NC(=O)[C@H](Cc1cccc(C(N)=O)c1)NC(=O)[C@@H]1CCCN1C(=O)[C@@H](CCCN)NC(=O)CNC(=O)[C@H](CCCN)NC(=O)[C@@H](NC(=O)[C@@H](N)CCCCN)[C@@H](O)CN)C(=O)O [211.3] (H-K[Dab(3S-OH)][Orn]G[dOrn]P[Phe(3-CONH2)]K[ΔZArg]-OH)
[1]
  Pa: MIC Pseudomonas aeruginosa ATCC 27853: − (>32 μg/mL)
[2]
  Ab: MIC Acinetobacter baumannii ATCC 19606: − (>32 μg/mL)
[3]
  Sa: MIC Staphylococcus aureus ATCC 13709: ++ (≤8 μg/mL)
[4]
  Ec: MIC Escherichia coli ATCC 25922: ++ (≤8 μg/mL)

## N=C(N)NCC/C=C(\NC(=O)[C@H](CCCCN)NC(=O)[C@H](Cc1cccc(F)c1)NC(=O)[C@@H]1CCCN1C(=O)[C@@H](CCCN)NC(=O)CNC(=O)[C@H](CCCN)NC(=O)[C@@H](NC(=O)[C@@H](N)CCCCN)[C@@H](O)CN)C(=O)O [211.4] (H-K[Dab(3S-OH)][Orn]G[dOrn]P[Phe(3-F)]K[ΔZArg]-OH)
[1]
  Pa: MIC Pseudomonas aeruginosa ATCC 27853: − (>32 μg/mL)
[2]
  Ab: MIC Acinetobacter baumannii ATCC 19606: − (>32 μg/mL)
[3]
  Sa: MIC Staphylococcus aureus ATCC 13709: ++ (≤8 μg/mL)
[4]
  Ec: MIC Escherichia coli ATCC 25922: ++ (≤8 μg/mL)

## Cc1cccc(C[C@H](NC(=O)[C@@H]2CCCN2C(=O)[C@@H](CCCN)NC(=O)CNC(=O)[C@H](CCCN)NC(=O)[C@@H](NC(=O)[C@@H](N)CCCCN)[C@@H](O)CN)C(=O)N[C@@H](CCCCN)C(=O)N/C(=C\CCNC(=N)N)C(=O)O)c1 [211.5] (H-K[Dab(3S-OH)][Orn]G[dOrn]P[Phe(3-Me)]K[ΔZArg]-OH)
[1]
  Pa: MIC Pseudomonas aeruginosa ATCC 27853: − (>32 μg/mL)
[2]
  Ab: MIC Acinetobacter baumannii ATCC 19606: − (>32 μg/mL)
[3]
  Sa: MIC Staphylococcus aureus ATCC 13709: ++ (≤8 μg/mL)
[4]
  Ec: MIC Escherichia coli ATCC 25922: ++ (≤8 μg/mL)

## N#Cc1ccc(C[C@H](NC(=O)[C@@H]2CCCN2C(=O)[C@@H](CCCN)NC(=O)CNC(=O)[C@H](CCCN)NC(=O)[C@@H](NC(=O)[C@@H](N)CCCCN)[C@@H](O)CN)C(=O)N[C@@H](CCCCN)C(=O)N/C(=C\CCNC(=N)N)C(=O)O)cc1 [211.6] (H-K[Dab(3S-OH)][Orn]G[dOrn]P[Phe(4-CN)]K[ΔZArg]-OH)
[1]
  Pa: MIC Pseudomonas aeruginosa ATCC 27853: − (>32 μg/mL)
[2]
  Ab: MIC Acinetobacter baumannii ATCC 19606: − (>32 μg/mL)
[3]
  Sa: MIC Staphylococcus aureus ATCC 13709: ++ (≤8 μg/mL)
[4]
  Ec: MIC Escherichia coli ATCC 25922: ++ (≤8 μg/mL)

## COc1ccc(C[C@H](NC(=O)[C@@H]2CCCN2C(=O)[C@@H](CCCN)NC(=O)CNC(=O)[C@H](CCCN)NC(=O)[C@@H](NC(=O)[C@@H](N)CCCCN)[C@@H](O)CN)C(=O)N[C@@H](CCCCN)C(=O)N/C(=C\CCNC(=N)N)C(=O)O)cc1 [211.7] (H-K[Dab(3S-OH)][Orn]G[dOrn]PY(Me)K[ΔZArg]-OH)
[1]
  Pa: MIC Pseudomonas aeruginosa ATCC 27853: − (>32 μg/mL)
[2]
  Ab: MIC Acinetobacter baumannii ATCC 19606: − (>32 μg/mL)
[3]
  Sa: MIC Staphylococcus aureus ATCC 13709: ++ (≤8 μg/mL)
[4]
  Ec: MIC Escherichia coli ATCC 25922: ++ (≤8 μg/mL)

## N=C(N)NCC/C=C(\NC(=O)[C@H](CCCCN)NC(=O)[C@H](CC(F)(F)F)NC(=O)[C@@H]1CCCN1C(=O)[C@@H](CCCN)NC(=O)CNC(=O)[C@H](CCCN)NC(=O)[C@@H](NC(=O)[C@@H](N)CCCCN)[C@@H](O)CN)C(=O)O [211.8] (H-K[Dab(3S-OH)][Orn]G[dOrn]P[Abu(4,4,4-F3)]K[ΔZArg]-OH)
[1]
  Pa: MIC Pseudomonas aeruginosa ATCC 27853: − (>32 μg/mL)
[2]
  Ab: MIC Acinetobacter baumannii ATCC 19606: − (>32 μg/mL)
[3]
  Sa: MIC Staphylococcus aureus ATCC 13709: ++ (≤8 μg/mL)
[4]
  Ec: MIC Escherichia coli ATCC 25922: ++ (≤8 μg/mL)

## N=C(N)NCC/C=C(\NC(=O)[C@H](CCCCN)NC(=O)[C@H](Cc1ccccc1F)NC(=O)[C@@H]1CCCN1C(=O)[C@@H](CCCN)NC(=O)CNC(=O)[C@H](CCCN)NC(=O)[C@@H](NC(=O)[C@@H](N)CCCCN)[C@@H](O)CN)C(=O)O [211.9] (H-K[Dab(3S-OH)][Orn]G[dOrn]P[Phe(2-F)]K[ΔZArg]-OH)
[1]
  Pa: MIC Pseudomonas aeruginosa ATCC 27853: − (>32 μg/mL)
[2]
  Ab: MIC Acinetobacter baumannii ATCC 19606: − (>32 μg/mL)
[3]
  Sa: MIC Staphylococcus aureus ATCC 13709: ++ (≤8 μg/mL)
[4]
  Ec: MIC Escherichia coli ATCC 25922: ++ (≤8 μg/mL)

## COc1ccc(C[C@H](NC(=O)[C@@H]2CCCN2C(=O)[C@@H](CCCN)NC(=O)CNC(=O)[C@H](CCCN)NC(=O)[C@@H](NC(=O)[C@@H](N)CCCCN)[C@@H](O)CN)C(=O)N[C@@H](CCCCN)C(=O)N/C(=C\CCNC(=N)N)C(=O)O)cc1OC [211.10] (H-K[Dab(3S-OH)][Orn]G[dOrn]P[Phe(3,4-(OMe)2)]K[ΔZArg]-OH)
[1]
  Pa: MIC Pseudomonas aeruginosa ATCC 27853: − (>32 μg/mL)
[2]
  Ab: MIC Acinetobacter baumannii ATCC 19606: − (>32 μg/mL)
[3]
  Sa: MIC Staphylococcus aureus ATCC 13709: ++ (≤8 μg/mL)
[4]
  Ec: MIC Escherichia coli ATCC 25922: ++ (≤8 μg/mL)

## N=C(N)NCC/C=C(\NC(=O)[C@H](CCCCN)NC(=O)[C@H](Cc1c[nH]c2ccccc12)NC(=O)[C@@H]1CCCN1C(=O)[C@@H](CCCN)NC(=O)CNC(=O)[C@H](CCCN)NC(=O)[C@@H](NC(=O)[C@@H](N)CCCCN)[C@@H](O)CN)C(=O)O [211.11] (H-K[Dab(3S-OH)][Orn]G[dOrn]PWK[ΔZArg]-OH)
[1]
  Pa: MIC Pseudomonas aeruginosa ATCC 27853: − (>32 μg/mL)
[2]
  Ab: MIC Acinetobacter baumannii ATCC 19606: − (>32 μg/mL)
[3]
  Sa: MIC Staphylococcus aureus ATCC 13709: ++ (≤8 μg/mL)
[4]
  Ec: MIC Escherichia coli ATCC 25922: ++ (≤8 μg/mL)

## N=C(N)NCC/C=C(\NC(=O)[C@H](CCCCN)NC(=O)[C@H](Cc1cnc[nH]1)NC(=O)[C@@H]1CCCN1C(=O)[C@@H](CCCN)NC(=O)CNC(=O)[C@@H](NC(=O)[C@@H](NC(=O)[C@@H](N)CCCCN)[C@@H](O)CN)C1CC1)C(N)=O [213.1] (H-K[Dab(3S-OH)][Gly(cPr)]G[dOrn]PHK[ΔZArg]-NH2)
[1]
  Pa: MIC Pseudomonas aeruginosa ATCC 27853: − (>32 μg/mL)
[2]
  Ab: MIC Acinetobacter baumannii ATCC 19606: − (>32 μg/mL)
[3]
  Sa: MIC Staphylococcus aureus ATCC 13709: ++ (≤8 μg/mL)
[4]
  Ec: MIC Escherichia coli ATCC 25922: + (≤32 μg/mL)

## N=C(N)NCC/C=C(\NC(=O)[C@H](CCCCN)NC(=O)[C@H](Cc1cnc[nH]1)NC(=O)[C@@H]1CCCN1C(=O)[C@@H](CCCN)NC(=O)CNC(=O)[C@@H](NC(=O)[C@@H](NC(=O)[C@@H](N)CCCCN)[C@@H](O)CN)C1CC1)C(=O)O [213.2] (H-K[Dab(3S-OH)][Gly(cPr)]G[dOrn]PHK[ΔZArg]-OH)
[1]
  Pa: MIC Pseudomonas aeruginosa ATCC 27853: − (>32 μg/mL)
[2]
  Ab: MIC Acinetobacter baumannii ATCC 19606: − (>32 μg/mL)
[3]
  Sa: MIC Staphylococcus aureus ATCC 13709: + (≤32 μg/mL)
[4]
  Ec: MIC Escherichia coli ATCC 25922: + (≤32 μg/mL)

## N=C(N)NCC/C=C(\NC(=O)[C@H](CCCCN)NC(=O)[C@H](Cc1cnc[nH]1)NC(=O)[C@@H]1CCCN1C(=O)[C@@H](CCCN)NC(=O)CNC(=O)[C@H](Cc1cnc[nH]1)NC(=O)[C@@H](NC(=O)[C@@H](N)CCCCN)[C@@H](O)CN)C(N)=O [214.1] (H-K[Dab(3S-OH)]HG[dOrn]PHK[ΔZArg]-NH2)
[1]
  Pa: MIC Pseudomonas aeruginosa ATCC 27853: − (>32 μg/mL)
[2]
  Ab: MIC Acinetobacter baumannii ATCC 19606: − (>32 μg/mL)
[3]
  Sa: MIC Staphylococcus aureus ATCC 13709: ++ (≤8 μg/mL)
[4]
  Ec: MIC Escherichia coli ATCC 25922: + (≤32 μg/mL)

## N=C(N)NCC/C=C(\NC(=O)[C@H](CCCCN)NC(=O)[C@H](Cc1cnc[nH]1)NC(=O)[C@@H]1CCCN1C(=O)[C@@H](CCCN)NC(=O)CNC(=O)[C@H](Cc1cnc[nH]1)NC(=O)[C@@H](NC(=O)[C@@H](N)CCCCN)[C@@H](O)CN)C(=O)O [214.2] (H-K[Dab(3S-OH)]HG[dOrn]PHK[ΔZArg]-OH)
[1]
  Pa: MIC Pseudomonas aeruginosa ATCC 27853: − (>32 μg/mL)
[2]
  Ab: MIC Acinetobacter baumannii ATCC 19606: − (>32 μg/mL)
[3]
  Sa: MIC Staphylococcus aureus ATCC 13709: + (≤32 μg/mL)
[4]
  Ec: MIC Escherichia coli ATCC 25922: − (>32 μg/mL)

## N=C(N)NCC/C=C(\NC(=O)[C@H](CCCCN)NC(=O)[C@H](Cc1cnc[nH]1)NC(=O)[C@@H]1CCCN1C(=O)[C@@H](CCCN)NC(=O)CNC(=O)[C@H](CCCCN)NC(=O)[C@@H](NC(=O)[C@@H](N)CCCCN)[C@@H](O)CN)C(=O)O [215.1] (H-K[Dab(3S-OH)]KG[dOrn]PHK[ΔZArg]-OH)
[1]
  Pa: MIC Pseudomonas aeruginosa ATCC 27853: − (>32 μg/mL)
[2]
  Ab: MIC Acinetobacter baumannii ATCC 19606: − (>32 μg/mL)
[3]
  Sa: MIC Staphylococcus aureus ATCC 13709: ++ (≤8 μg/mL)
[4]
  Ec: MIC Escherichia coli ATCC 25922: + (≤32 μg/mL)

## CNCCCC[C@H](NC(=O)[C@@H](NC(=O)[C@@H](N)CCCCN)[C@@H](O)CN)C(=O)NCC(=O)N[C@H](CCCN)C(=O)N1CCC[C@H]1C(=O)N[C@@H](Cc1cnc[nH]1)C(=O)N[C@@H](CCCCN)C(=O)N/C(=C\CCNC(=N)N)C(N)=O [215.2] (H-K[Dab(3S-OH)][Lys(Me)]G[dOrn]PHK[ΔZArg]-NH2)
[1]
  Pa: MIC Pseudomonas aeruginosa ATCC 27853: − (>32 μg/mL)
[2]
  Ab: MIC Acinetobacter baumannii ATCC 19606: − (>32 μg/mL)
[3]
  Sa: MIC Staphylococcus aureus ATCC 13709: ++ (≤8 μg/mL)
[4]
  Ec: MIC Escherichia coli ATCC 25922: ++ (≤8 μg/mL)
